Experimental data: patent US8519007B2, “Use certain diterpene compounds in the treatment of androgen receptor-associated diseases” (Academia Sinica, priority 2008, dated 2013)
Like-named read-outs stand apart in the source and are kept apart here.

How the values were obtained:
LNCaP cells [1] = assay: Morphology of treated cells; conditions: 10 to 50 μM, 48 h
Excerpt: The long-term effect of HDHS on the malignant growth of AR-dependent (22Rv1, and LNCaP) and AR-independent (PC-3) PCa cells was examined by colony-forming growth assay.

22Rv1 cells [2] = assay: Cell cycle distribution by propidium iodide flow cytometry; type: cell-based, human; conditions: 48 h
Protocol: (§4) The cell cycle of treated cells was examined by flow cytometry after cellular staining with propidium iodide. 5×10^5 cells were seeded into 6-well multidishes with 10% FBS culture medium for 48 h. […] Cells were trypsinized thereafter, washed twice with cold PBS, and centrifuged. The pellet was suspended in cold PBS and 1 mL of 70% ethanol at 4° C. overnight, washed twice with cold PBS, and digested with RNase (100 μg/mL final concentration) and stained with propidium iodide (10 μg/mL final concentration) for 30 min and analyzed by flow cytometry (EPICS XL-MCL, Beckman Coulter, Inc., Fullerton, Calif.).

22Rv1 tumors = assay: 22Rv1 xenograft in athymic nude mice, oral HDHS; type: in vivo
Protocol: (§1) 22Rv1 cells were derived from a castration-relapsed tumor of human PCa origin that represents a clinical limitation for hormonal therapy (Nagabhushan M, et al., Cancer Res 1996;56:3042-6; Sramkoski R M, et al., In Vitro Cell Dev Biol Anim 1999; 35:403-9). The potential of HDHS to inhibit growth of PCa in vivo was tested in athymic nude mice with 22Rv1 tumors. […]. All animal work was done in accordance with the protocol approved by the Institutional Animal Care and Use Committee, Academia Sinica. Aliquots of 1×10^6 22Rv1 cells were suspended in 1:1 PBS mixed with Matrigel (BD Biosciences, San Jose, Calif.) and were subcutaneously inoculated into the right flank of each mouse. Once the tumor grew to palpable size one week after 22Rv1 cells were implanted, mice were stochastically assigned to three groups (n=7) that received vehicle control or HDHS at different dosages (0.5 and 2.5 mg/kg/day), by gavage in 0.2 mL of PBS containing 10% DMSO. Tumors were measured twice per week using calipers and their volumes calculated using a standard formula, as follows: width2×length×0.5. Body weight was measured weekly. Mice received 24 doses, and 24 h after the last dose they were sacrificed to harvest plasma and tumors. A portion of each tumor was snap-frozen in liquid nitrogen and stored at −80° C. until needed for western blot analysis of relevant biomarkers, and the remainder was fixed in 10% formalin overnight.
Immunohistochemistry was conducted to examine the in vivo effects of HDHS on proliferation and apoptosis in tumor xenografts. The paraffin-embedded tumor sections (4 μm thickness) were heat immobilized, deparaffinized using xylene and rehydrated in a graded series of ethanol with a final wash in distilled water. Antigen retrieval was done in TARGET RETRIEVAL SOLUTION (DakoCytomation, Glostrup, Denmark) in a DECLOAKING CHAMBER (Biocare Medical, Concord, Calif.) followed by quenching of endogenous peroxidase activity. Sections were then incubated with specific primary antibodies, including mouse monoclonal anti-Ki-67 (DakoCytomation) and rabbit polyclonal anti-AR (Santa Cruz) at 4° C. overnight in a humidity chamber. An ENVISION system (DakoCytomation) was used to detect the reaction products. In situ detection of apoptotic cells was carried out using terminal deoxynucleotidyl transferase-mediated nick-end labeling (TUNEL assay) reaction mixture according to the manufacturer's protocol (Chemicon).

[3] = HDHS levels in plasma and tumors of treated nude mice (HPLC); type: in vivo; conditions: 24 h after the last of 24 doses; for concentration at 24 h after the last dose: athymic (nu/nu) nude, mouse, in vivo, read-out: HDHS level in plasma
Protocol: as §1
In order to further understand the dose-effect relationships, the attainable levels of HDHS in plasma and tumors were detected 24 h after the last dose of HDHS regimen in the tested mice. […]. These increases of HDHS concentrations in plasma and tumors were dose-dependent and consistent with the extent of tumor suppression (FIGS. 6A and B).

LNCaP cells [4] = assay: Cell cycle distribution by propidium iodide flow cytometry; type: cell-based, human; conditions: 48 h
Protocol: as §4

22Rv1 cells [5] = assay: Apoptosis by nucleosome release (cytoplasmic DNA fragmentation); type: cell-based, human; conditions: 22Rv1, 5-10 μM, 24 h
LNCaP cells [6] = assay: as above; type: cell-based, human; conditions: 5-10 μM, 24 h
Protocol: (§2) FIGS. 4A-B. HDHS induces apoptosis in AR-dependent PCa cells. A, Apoptosis of cytoplasmic DNA fragmentation in different cell lines treated with vehicle or indicated concentrations of HDHS for 24 h. Difference between the indicated pair of treatments was tested for statistic significance as marked. *, P≦0.05; **, P≦0.01. B, Activation of caspases and PARP in HDHS-induced apoptosis of LNCaP cells.
(§3) In light of the increase of sub-G1 populations by HDHS, apoptosis in treated cells was further analyzed via measurement of nucleosome release in PCa cells. […] 22Rv1 cells with AR expression are ablation-resistant but respond to androgen stimulation; HDHS led to their apoptosis.

PC-3 cells = assay: as above; type: cell-based, human; conditions: PC-3, 5-10 μM, 24 h
Protocol: as §2, §3

[7] = 0.5 and 2.5 mg/kg/day oral, 24 days

## CC(C)c1cc2c(cc1O)[C@@]1(C)CCCC(C)(C)C1=C(O)C2=O [Compound 2, 6,12-dihydroxyabieta-5,8,11,13-tetraen-7-one]
LNCaP cells [1]
  morphology of treated cells: cell rounding and surface blebbing
22Rv1 cells [2]; 22Rv1, 2.5 μM
  G0-G1 phase cell population: 54.5 ± 2.5 %
  G2-M phase cell population: 24.8 ± 2.4 %
  S phase cell population: 11.2 ± 1.9 %
  Sub-G1 phase cell population: 2.2 ± 0.8 %
22Rv1 cells [2]; 22Rv1, 5 μM
  G0-G1 phase cell population: 57.9 ± 1.9 %
  G2-M phase cell population: 23.7 ± 2.7 %
  S phase cell population: 8.0 ± 1.4 %
  Sub-G1 phase cell population: 3.8 ± 0.9 %
22Rv1 cells [2]; 22Rv1, 10 μM
  G0-G1 phase cell population: 48.4 ± 2.9 %
  G2-M phase cell population: 24.5 ± 2.0 %
  S phase cell population: 5.7 ± 2.2 %
  Sub-G1 phase cell population: 14.4 ± 3.7 %
22Rv1 tumors; [7]
  Ki-67 positive proliferative tumor cells: decreased the number of cells positively stained for Ki-67
  TUNEL positive apoptotic tumor cells: increase of apoptotic tumor cells
22Rv1 tumors; HDHS-treated 22Rv1 tumors
  AR expression in tumor cells (immunohistochemistry): prevalent decrease of AR expression
22Rv1 tumors; nude mice, 0.5 and 2.5 mg/kg/day by gavage, 24 doses
  tumor growth of 22Rv1 xenograft: significantly retarded tumor growth
22Rv1 tumors; nude mice, 24-day regimen, oral
  symptoms of toxicity (loss of appetite, decreased locomotion, signs of illness): did not exhibit any symptoms of toxicity
22Rv1 tumors; up to 2.5 mg/kg per day, oral
  body weight of tested mice: not influenced
[3]; oral 0.5 mg/kg
  concentration at 24 h after the last dose: 450 ± 140 nM
  HDHS level in tumor tissues: 98.45 ± 19.80 nmol/g
[3]; oral 2.5 mg/kg
  concentration at 24 h after the last dose: 1450 ± 300 nM
  HDHS level in tumor tissues: 154.93 ± 12.97 nmol/g
LNCaP cells [4]; 2.5 μM
  G0-G1 phase cell population: 62.6 ± 2.8 %
  G2-M phase cell population: 21.1 ± 2.4 %
  S phase cell population: 11.5 ± 2.1 %
  Sub-G1 phase cell population: 0.8 ± 0.4 %
LNCaP cells [4]; 5 μM
  G0-G1 phase cell population: 66.9 ± 2.0 %
  G2-M phase cell population: 18.7 ± 3.5 %
  S phase cell population: 8.1 ± 1.8 %
  Sub-G1 phase cell population: 3.9 ± 0.7 %
LNCaP cells [4]; 10 μM
  G0-G1 phase cell population: 45.1 ± 3.1 %
  G2-M phase cell population: 20.2 ± 2.1 %
  S phase cell population: 6.8 ± 2.4 %
  Sub-G1 phase cell population: 24.3 ± 3.1 %
22Rv1 cells [5]
  apoptosis (nucleosome release): significantly induced
LNCaP cells [6]
  apoptosis (nucleosome release): significantly induced
PC-3 cells
  apoptosis (nucleosome release): not in PC-3 cells
